Data reported in article PMC3164908 (European journal of medicinal chemistry, 2011).
Entries after “also recorded” stand apart in the source; their conditions may differ. Read-outs that look alike come from different tables or passages of the source.

How the values were obtained:
Solubility in water = format: physicochemical
MT-2 cell line = assay: Cell viability assay; format: cell-based, human; settings: MTT assay, concentrations up to 100 μM
[1] = tested on: TZM-BL (derived from Hela Cells); assay: Cytotoxicity screening, Promega CellTiter-Glo Luminescent Cell Viability Assay; format: cell-based; settings: Homo sapiens, read-out: IC50 (μM), concentration that inhibits cell growth by 50%
[2] = tested on: multidrug-resistant strains of HIV; settings: cited from earlier work

## [N-]=[N+]=N[C@]1(CO)O[C@@H](n2ccc(N)nc2=O)[C@@H](F)[C@@H]1O [Compound 10, 1-(4′-azido-2′-deoxy-2′-fluoro-β -D-arabinofuranosyl)cytosine]
Solubility in water; water
  solubility: 3.1 g in 100 g water
MT-2 cell line
  cytotoxicity / effect on cell growth: did not show significant cytotoxicity; also recorded: without significant cytotoxicity; also recorded: no significant effect on cell growth or any cytotoxic effect

## Cl.[N-]=[N+]=N[C@]1(CO)O[C@@H](n2ccc(N)nc2=O)[C@@H](F)[C@@H]1O [Compound 11]
Solubility in water
  solubility: 14.3 g in 100 g water
MT-2 cell line
  cytotoxicity / effect on cell growth: did not show significant cytotoxicity; also recorded: without significant cytotoxicity; also recorded: no significant effect on cell growth or any cytotoxic effect

## Cl.[N-]=[N+]=N[C@]1(CO)O[C@@H](n2ccc(N)nc2=O)[C@@H](F)[C@@H]1O [Compound 11, 1-(4-azido-2-deoxy-2-fluoro)-β-D-arabinofuranosyl)cytosine hydrochloride salt]
[1]
  IC50: > 140 µM

## Cc1cn([C@H]2C[C@H](O)[C@](CO)(N=[N+]=[N-])O2)c(=O)[nH]c1=O [4′-C-azidothymidine]
[2]
  EC50: 340 nM
